The target of the experiment is T1, Androgen receptor (Homo sapiens, UniProt P10275).
T1 sequence (P10275 whole entry): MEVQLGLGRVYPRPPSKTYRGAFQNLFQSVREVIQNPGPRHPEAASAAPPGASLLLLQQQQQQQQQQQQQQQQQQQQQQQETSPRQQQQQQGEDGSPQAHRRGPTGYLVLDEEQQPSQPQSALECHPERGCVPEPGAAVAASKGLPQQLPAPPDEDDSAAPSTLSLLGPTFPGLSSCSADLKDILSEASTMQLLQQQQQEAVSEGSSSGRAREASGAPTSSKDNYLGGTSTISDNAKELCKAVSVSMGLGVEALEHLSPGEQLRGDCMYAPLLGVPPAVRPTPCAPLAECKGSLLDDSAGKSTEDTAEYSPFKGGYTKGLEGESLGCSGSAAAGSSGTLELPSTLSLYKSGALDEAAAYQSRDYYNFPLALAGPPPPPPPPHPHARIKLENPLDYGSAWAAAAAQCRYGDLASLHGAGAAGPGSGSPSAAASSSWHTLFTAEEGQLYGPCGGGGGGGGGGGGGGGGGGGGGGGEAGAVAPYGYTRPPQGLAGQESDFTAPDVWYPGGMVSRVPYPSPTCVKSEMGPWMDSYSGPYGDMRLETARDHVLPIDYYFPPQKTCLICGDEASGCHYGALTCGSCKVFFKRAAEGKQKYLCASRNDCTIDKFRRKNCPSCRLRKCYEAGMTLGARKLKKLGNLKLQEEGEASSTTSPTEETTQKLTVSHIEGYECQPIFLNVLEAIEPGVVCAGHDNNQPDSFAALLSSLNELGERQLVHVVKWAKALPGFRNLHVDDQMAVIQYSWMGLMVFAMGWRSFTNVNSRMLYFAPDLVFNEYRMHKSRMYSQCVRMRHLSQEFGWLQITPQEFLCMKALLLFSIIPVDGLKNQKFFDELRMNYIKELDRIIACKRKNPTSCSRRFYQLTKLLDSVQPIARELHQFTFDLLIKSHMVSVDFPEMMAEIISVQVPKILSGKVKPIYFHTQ
Kind of experiment: Antagonist activity at human androgen receptor LBD expressed in human MDA-kb2 cells by luciferase reporter gene assay.

In general, IC50 refers to the midpoint of a concentration-inhibition curve. A lower IC50 goes with inhibition by little substance. `O=c1cccc2oc(-c3ccc(O)cc3)cc(O)c1-2` [5-hydroxy-2-(4-hydroxyphenyl)-4H-chromen-4-one] had an IC50 of 0.851 µM. This counts as sub-micromolar.

As to `CN(C)c1ccc(-c2cc(O)c3c(=O)cccc-3o2)cc1`, the IC50 stood at 0.851 µM. This counts as sub-micromolar.
